What was measured:
[1] = molecular target: Tyrosine-protein kinase ABL1 (Homo sapiens) (UniProt P00519); details: Compound concentration 1000.0 nM
[2] = system: Tyrosine-protein kinase ABL1 (Homo sapiens), P00519 [Y253F]; details: Compound concentration 1000.0 nM
[3] = molecular target: Mitogen-activated protein kinase kinase kinase kinase 5 (Homo sapiens) (UniProt Q9Y4K4); details: Compound concentration 1000.0 nM
[4] = molecular target: Non-receptor tyrosine-protein kinase TYK2 (Homo sapiens) (UniProt P29597); details: Compound concentration 1000.0 nM
[5] = molecular target: Tyrosine-protein kinase JAK3 (Homo sapiens) (UniProt P52333); details: Compound concentration 1000.0 nM
[6] = molecular target: Misshapen-like kinase 1 (Homo sapiens) (UniProt Q8N4C8); details: Compound concentration 1000.0 nM
[7] = molecular target: Serine/threonine-protein kinase N1 (Homo sapiens) (UniProt Q16512); details: Compound concentration 1000.0 nM
[8] = molecular target: Microtubule-associated serine/threonine-protein kinase 1 (Homo sapiens) (UniProt Q9Y2H9); details: Compound concentration 1000.0 nM
[9] = molecular target: Tyrosine-protein kinase Srms (Homo sapiens) (UniProt Q9H3Y6); details: Compound concentration 1000.0 nM
[10] = molecular target: Receptor-type tyrosine-protein kinase FLT3 (Homo sapiens) (UniProt P36888); details: Compound concentration 1000.0 nM
[11] = molecular target: Rho-associated protein kinase 1 (Homo sapiens) (UniProt Q13464); details: Compound concentration 1000.0 nM
[12] = molecular target: Mitogen-activated protein kinase kinase kinase 12 (Homo sapiens) (UniProt Q12852); details: Compound concentration 1000.0 nM
[13] = molecular target: Tyrosine-protein kinase Fyn (Homo sapiens) (UniProt P06241); details: Compound concentration 1000.0 nM
[14] = system: Receptor-type tyrosine-protein kinase FLT3 (Homo sapiens), P36888 [N841I]; details: Compound concentration 1000.0 nM
[15] = molecular target: Atypical kinase COQ8A, mitochondrial (Homo sapiens) (UniProt Q8NI60); details: Compound concentration 1000.0 nM
[16] = molecular target: Dual specificity mitogen-activated protein kinase kinase 6 (Homo sapiens) (UniProt P52564); details: Compound concentration 1000.0 nM
[17] = molecular target: Cyclin-dependent kinase 4 (Homo sapiens) (UniProt P11802); details: Compound concentration 1000.0 nM
[18] = molecular target: Tyrosine-protein kinase Yes (Homo sapiens) (UniProt P07947); details: Compound concentration 1000.0 nM
[19] = molecular target: Hepatocyte growth factor receptor (Homo sapiens) (UniProt P08581); details: Compound concentration 1000.0 nM
[20] = molecular target: Ribosomal protein S6 kinase alpha-4 (Homo sapiens) (UniProt O75676); details: Compound concentration 1000.0 nM
[21] = molecular target: Mitogen-activated protein kinase 12 (Homo sapiens) (UniProt P53778); details: Compound concentration 1000.0 nM
[22] = molecular target: TGF-beta receptor type-1 (Homo sapiens) (UniProt P36897); details: Compound concentration 1000.0 nM
[23] = molecular target: Cytoplasmic tyrosine-protein kinase BMX (Homo sapiens) (UniProt P51813); details: Compound concentration 1000.0 nM
[24] = molecular target: Proto-oncogene tyrosine-protein kinase receptor Ret (Homo sapiens) (UniProt P07949); details: Compound concentration 1000.0 nM
[25] = molecular target: Tyrosine-protein kinase Lyn (Homo sapiens) (UniProt P07948); details: Compound concentration 1000.0 nM
[26] = molecular target: Serine/threonine-protein kinase D3 (Homo sapiens) (UniProt O94806); details: Compound concentration 1000.0 nM
[27] = molecular target: Tyrosine-protein kinase Fes/Fps (Homo sapiens) (UniProt P07332); details: Compound concentration 1000.0 nM
[28] = molecular target: Serine/threonine-protein kinase DCLK3 (Homo sapiens) (UniProt Q9C098); details: Compound concentration 1000.0 nM
[29] = molecular target: Kappa-type opioid receptor (Homo sapiens) (UniProt P41145); details: Compound concentration 10.0 uM
[30] = molecular target: LIM domain kinase 2 (Homo sapiens) (UniProt P53671); details: Compound concentration 1000.0 nM
[31] = molecular target: Serine/threonine-protein kinase 32A (Homo sapiens) (UniProt Q8WU08); details: Compound concentration 1000.0 nM
[32] = molecular target: Wee1-like protein kinase 2 (Homo sapiens) (UniProt P0C1S8); details: Compound concentration 1000.0 nM
[33] = molecular target: Alpha-1B adrenergic receptor (Homo sapiens) (UniProt P35368); details: Compound concentration 10.0 uM
[34] = molecular target: Mitogen-activated protein kinase kinase kinase 3 (Homo sapiens) (UniProt Q99759); details: Compound concentration 1000.0 nM
[35] = molecular target: Ribosomal protein S6 kinase beta-1 (Homo sapiens) (UniProt P23443); details: Compound concentration 1000.0 nM
[36] = molecular target: Calcium/calmodulin-dependent protein kinase type 1 (Homo sapiens) (UniProt Q14012); details: Compound concentration 1000.0 nM
[37] = system: Phosphatidylinositol 4,5-bisphosphate 3-kinase catalytic subunit alpha isoform (Homo sapiens), P42336 [I800L]; details: Compound concentration 1000.0 nM
[38] = molecular target: Casein kinase I isoform alpha (Homo sapiens) (UniProt P48729); details: Compound concentration 1000.0 nM
[39] = molecular target: Myosin light chain kinase 2, skeletal/cardiac muscle (Homo sapiens) (UniProt Q9H1R3); details: Compound concentration 1000.0 nM
[40] = molecular target: Cyclin-dependent kinase-like 2 (Homo sapiens) (UniProt Q92772); details: Compound concentration 1000.0 nM
[41] = molecular target: Ribosomal protein S6 kinase alpha-1 (Homo sapiens) (UniProt Q15418); details: Compound concentration 1000.0 nM
[42] = molecular target: Serine/threonine-protein kinase Nek5 (Homo sapiens) (UniProt Q6P3R8); details: Compound concentration 1000.0 nM
[43] = molecular target: Serine/threonine-protein kinase B-raf (Homo sapiens) (UniProt P15056); details: Compound concentration 1000.0 nM
[44] = molecular target: Cyclin-dependent kinase 11A (Homo sapiens) (UniProt Q9UQ88); details: Compound concentration 1000.0 nM
[45] = molecular target: Dual serine/threonine and tyrosine protein kinase (Homo sapiens) (UniProt Q6XUX3); details: Compound concentration 1000.0 nM

Serine/threonine-protein kinase DCLK3 (Homo sapiens), sequence (Q9C098 whole entry): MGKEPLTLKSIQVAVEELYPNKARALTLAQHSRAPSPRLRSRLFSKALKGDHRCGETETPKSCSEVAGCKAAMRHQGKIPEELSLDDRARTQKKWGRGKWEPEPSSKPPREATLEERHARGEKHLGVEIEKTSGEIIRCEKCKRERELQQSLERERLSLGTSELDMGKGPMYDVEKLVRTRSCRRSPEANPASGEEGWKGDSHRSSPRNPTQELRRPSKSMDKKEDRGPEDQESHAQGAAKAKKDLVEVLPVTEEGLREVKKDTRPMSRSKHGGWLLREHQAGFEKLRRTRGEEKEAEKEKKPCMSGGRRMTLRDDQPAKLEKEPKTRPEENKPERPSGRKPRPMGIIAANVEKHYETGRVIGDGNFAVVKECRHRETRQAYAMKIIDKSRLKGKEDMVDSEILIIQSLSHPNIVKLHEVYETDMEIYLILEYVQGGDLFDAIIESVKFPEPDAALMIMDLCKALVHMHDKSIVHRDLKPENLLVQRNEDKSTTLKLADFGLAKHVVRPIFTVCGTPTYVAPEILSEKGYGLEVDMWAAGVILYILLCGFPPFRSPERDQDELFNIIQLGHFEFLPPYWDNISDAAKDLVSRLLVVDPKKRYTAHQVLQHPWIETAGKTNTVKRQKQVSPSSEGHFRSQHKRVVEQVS
Tyrosine-protein kinase Fyn (Homo sapiens), sequence (P06241 2-537 limits assumed): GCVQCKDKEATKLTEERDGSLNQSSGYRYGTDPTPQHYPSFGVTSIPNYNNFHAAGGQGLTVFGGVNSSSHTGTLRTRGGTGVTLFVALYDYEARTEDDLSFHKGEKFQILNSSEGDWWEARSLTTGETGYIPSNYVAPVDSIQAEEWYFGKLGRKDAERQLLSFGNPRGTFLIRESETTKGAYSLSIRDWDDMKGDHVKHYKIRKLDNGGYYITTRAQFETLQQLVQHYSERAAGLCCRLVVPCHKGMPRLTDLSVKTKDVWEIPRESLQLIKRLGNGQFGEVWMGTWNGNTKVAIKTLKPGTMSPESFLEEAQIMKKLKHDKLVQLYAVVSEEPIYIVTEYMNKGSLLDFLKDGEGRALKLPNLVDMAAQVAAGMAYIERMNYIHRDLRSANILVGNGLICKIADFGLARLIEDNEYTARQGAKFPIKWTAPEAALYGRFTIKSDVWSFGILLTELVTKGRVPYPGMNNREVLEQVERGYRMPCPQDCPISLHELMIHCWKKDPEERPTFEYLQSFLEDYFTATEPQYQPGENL
Serine/threonine-protein kinase N1 (Homo sapiens), sequence (Q16512 2-942 limits assumed): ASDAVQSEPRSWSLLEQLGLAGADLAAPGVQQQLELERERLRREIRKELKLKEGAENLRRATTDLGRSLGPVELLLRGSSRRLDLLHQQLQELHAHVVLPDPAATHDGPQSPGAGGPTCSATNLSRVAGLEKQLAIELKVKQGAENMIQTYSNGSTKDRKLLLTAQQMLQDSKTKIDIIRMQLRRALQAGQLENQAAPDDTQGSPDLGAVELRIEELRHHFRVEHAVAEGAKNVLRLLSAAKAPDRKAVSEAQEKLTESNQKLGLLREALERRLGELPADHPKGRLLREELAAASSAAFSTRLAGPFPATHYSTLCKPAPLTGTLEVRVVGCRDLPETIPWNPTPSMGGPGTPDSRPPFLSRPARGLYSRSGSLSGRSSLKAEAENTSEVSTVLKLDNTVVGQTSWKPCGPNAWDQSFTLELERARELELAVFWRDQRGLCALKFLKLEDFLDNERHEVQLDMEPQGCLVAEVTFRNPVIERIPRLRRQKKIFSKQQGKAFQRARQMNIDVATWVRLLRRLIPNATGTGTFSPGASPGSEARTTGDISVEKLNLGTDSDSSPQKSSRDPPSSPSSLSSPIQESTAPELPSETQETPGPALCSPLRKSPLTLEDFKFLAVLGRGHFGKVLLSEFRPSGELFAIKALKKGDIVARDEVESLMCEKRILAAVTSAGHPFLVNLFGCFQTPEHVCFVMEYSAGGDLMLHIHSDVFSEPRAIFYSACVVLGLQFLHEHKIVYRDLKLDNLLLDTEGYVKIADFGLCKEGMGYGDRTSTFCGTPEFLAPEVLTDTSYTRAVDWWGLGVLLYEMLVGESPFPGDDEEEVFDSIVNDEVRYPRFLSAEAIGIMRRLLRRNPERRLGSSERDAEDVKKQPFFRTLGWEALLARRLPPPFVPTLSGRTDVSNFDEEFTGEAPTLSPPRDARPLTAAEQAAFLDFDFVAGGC
Mitogen-activated protein kinase kinase kinase 3 (Homo sapiens), sequence (Q99759 whole entry): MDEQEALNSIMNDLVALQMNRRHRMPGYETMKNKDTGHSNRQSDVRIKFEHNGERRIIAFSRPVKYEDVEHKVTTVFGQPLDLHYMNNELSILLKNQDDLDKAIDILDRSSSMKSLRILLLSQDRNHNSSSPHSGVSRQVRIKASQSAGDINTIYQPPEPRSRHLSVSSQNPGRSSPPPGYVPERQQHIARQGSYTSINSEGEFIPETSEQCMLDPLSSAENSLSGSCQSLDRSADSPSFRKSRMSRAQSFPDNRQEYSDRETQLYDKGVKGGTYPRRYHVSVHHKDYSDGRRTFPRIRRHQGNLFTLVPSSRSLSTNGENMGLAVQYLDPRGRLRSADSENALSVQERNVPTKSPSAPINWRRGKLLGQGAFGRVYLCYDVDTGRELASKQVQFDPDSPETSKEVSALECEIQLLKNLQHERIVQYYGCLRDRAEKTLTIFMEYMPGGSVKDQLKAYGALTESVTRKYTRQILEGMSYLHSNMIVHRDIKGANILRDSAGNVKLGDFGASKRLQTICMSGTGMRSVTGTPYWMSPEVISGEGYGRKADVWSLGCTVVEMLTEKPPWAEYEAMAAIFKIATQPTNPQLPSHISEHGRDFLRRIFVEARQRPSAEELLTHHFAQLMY
Ribosomal protein S6 kinase alpha-1 (Homo sapiens), sequence (Q15418 whole entry): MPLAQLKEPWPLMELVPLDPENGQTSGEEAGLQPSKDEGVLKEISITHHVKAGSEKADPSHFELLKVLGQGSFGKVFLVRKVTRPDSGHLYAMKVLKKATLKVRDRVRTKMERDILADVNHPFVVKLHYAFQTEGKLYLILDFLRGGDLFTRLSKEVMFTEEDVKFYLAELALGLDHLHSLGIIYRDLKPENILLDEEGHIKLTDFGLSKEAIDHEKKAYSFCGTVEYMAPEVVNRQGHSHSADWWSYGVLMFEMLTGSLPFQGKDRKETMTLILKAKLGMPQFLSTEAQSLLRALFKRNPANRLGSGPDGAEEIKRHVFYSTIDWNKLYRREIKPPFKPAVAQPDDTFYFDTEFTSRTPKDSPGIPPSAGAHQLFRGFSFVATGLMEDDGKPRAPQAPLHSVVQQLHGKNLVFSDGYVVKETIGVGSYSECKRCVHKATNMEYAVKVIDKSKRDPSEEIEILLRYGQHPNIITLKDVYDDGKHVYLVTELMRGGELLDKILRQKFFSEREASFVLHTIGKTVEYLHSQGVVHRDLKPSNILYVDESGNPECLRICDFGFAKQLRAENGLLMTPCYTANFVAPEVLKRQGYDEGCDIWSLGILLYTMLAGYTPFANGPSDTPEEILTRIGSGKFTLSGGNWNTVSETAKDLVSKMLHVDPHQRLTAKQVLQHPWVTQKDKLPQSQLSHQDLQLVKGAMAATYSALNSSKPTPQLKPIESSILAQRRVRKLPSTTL
Phosphatidylinositol 4,5-bisphosphate 3-kinase catalytic subunit alpha isoform (Homo sapiens), P42336 [I800L], sequence (P42336 whole entry I800L, canonical isoform): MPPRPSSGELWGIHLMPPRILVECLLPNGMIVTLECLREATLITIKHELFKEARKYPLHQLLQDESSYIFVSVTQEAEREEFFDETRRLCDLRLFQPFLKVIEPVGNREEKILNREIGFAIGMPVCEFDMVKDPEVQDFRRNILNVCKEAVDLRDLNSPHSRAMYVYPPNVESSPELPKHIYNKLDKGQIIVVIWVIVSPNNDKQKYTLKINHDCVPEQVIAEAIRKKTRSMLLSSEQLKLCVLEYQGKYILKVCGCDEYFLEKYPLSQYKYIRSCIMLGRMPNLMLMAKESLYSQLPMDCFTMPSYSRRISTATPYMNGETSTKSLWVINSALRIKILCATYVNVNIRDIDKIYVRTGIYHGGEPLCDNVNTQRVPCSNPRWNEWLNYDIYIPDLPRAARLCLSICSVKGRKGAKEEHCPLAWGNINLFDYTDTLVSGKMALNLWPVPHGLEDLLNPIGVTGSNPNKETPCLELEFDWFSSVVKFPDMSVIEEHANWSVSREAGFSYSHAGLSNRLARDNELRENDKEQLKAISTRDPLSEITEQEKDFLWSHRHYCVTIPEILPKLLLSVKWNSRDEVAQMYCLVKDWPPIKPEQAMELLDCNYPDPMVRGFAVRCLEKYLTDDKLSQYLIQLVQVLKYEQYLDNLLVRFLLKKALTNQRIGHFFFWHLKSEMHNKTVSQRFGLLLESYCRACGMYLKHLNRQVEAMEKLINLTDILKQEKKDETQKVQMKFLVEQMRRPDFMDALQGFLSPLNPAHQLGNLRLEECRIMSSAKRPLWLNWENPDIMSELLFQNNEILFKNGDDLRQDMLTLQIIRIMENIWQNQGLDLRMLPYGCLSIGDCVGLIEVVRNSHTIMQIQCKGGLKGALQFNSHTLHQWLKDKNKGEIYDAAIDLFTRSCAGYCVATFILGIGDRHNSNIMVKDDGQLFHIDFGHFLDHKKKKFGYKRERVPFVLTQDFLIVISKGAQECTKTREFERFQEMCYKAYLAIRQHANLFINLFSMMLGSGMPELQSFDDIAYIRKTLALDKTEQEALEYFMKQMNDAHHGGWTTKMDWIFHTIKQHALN
Cyclin-dependent kinase 4 (Homo sapiens), sequence (P11802 whole entry): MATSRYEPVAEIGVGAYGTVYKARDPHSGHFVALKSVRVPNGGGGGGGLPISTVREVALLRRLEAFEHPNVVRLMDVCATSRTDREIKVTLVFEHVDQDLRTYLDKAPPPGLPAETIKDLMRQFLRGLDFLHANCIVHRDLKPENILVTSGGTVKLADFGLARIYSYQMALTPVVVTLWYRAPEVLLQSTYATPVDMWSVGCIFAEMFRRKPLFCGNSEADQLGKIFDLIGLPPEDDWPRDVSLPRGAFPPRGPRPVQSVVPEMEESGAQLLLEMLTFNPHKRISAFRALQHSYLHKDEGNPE

C[C@H](NC(=O)c1cnc2n1[C@](C)(Cc1ccc(C#N)cc1)C(=O)N2c1cc(Cl)c(F)c(Cl)c1)C(=O)NC1(c2ccccn2)CC1 [BI 1950]
inactive: residual activity [1] 100% | residual activity [2] 100% | residual activity [3] 94% | residual activity [4] 100% | residual activity [5] 100% | residual activity [6] 100% | residual activity [7] 100% | residual activity [8] 100% | residual activity [9] 100% | residual activity [10] 100% | residual activity [11] 100% | residual activity [12] 100% | residual activity [13] 70% | residual activity [14] 78% | residual activity [15] 100% | residual activity [16] 80% | residual activity [17] 100% | residual activity [18] 100% | residual activity [19] 100% | residual activity [20] 92% | residual activity [21] 100% | residual activity [22] 82% | residual activity [23] 77% | residual activity [24] 100% | residual activity [25] 100% | residual activity [26] 100% | residual activity [27] 100% | residual activity [28] 100% | inhibition [29] 9.67% | residual activity [30] 100% | residual activity [31] 83% | residual activity [32] 100% | inhibition [33] 2.35% | residual activity [34] 100% | residual activity [35] 100% | residual activity [36] 96% | residual activity [37] 100% | residual activity [38] 100% | residual activity [39] 98% | residual activity [40] 100% | residual activity [41] 100% | residual activity [42] 100% | residual activity [43] 100% | residual activity [44] 100% | residual activity [45] 87%

C[C@@]1(Cc2ccc(C#N)cc2)C(=O)N(c2cc(Cl)cc(Cl)c2)c2ncc(C(=O)NC3(c4nc(C5CCC5)no4)CC3)n21 [BI 9446]
active: residual activity [23] 40%
inactive: residual activity [1] 100% | residual activity [2] 95% | residual activity [3] 93% | residual activity [4] 100% | residual activity [5] 100% | residual activity [6] 100% | residual activity [7] 100% | residual activity [8] 100% | residual activity [9] 100% | residual activity [10] 100% | residual activity [11] 100% | residual activity [12] 100% | residual activity [13] 89% | residual activity [14] 89% | residual activity [15] 90% | residual activity [16] 80% | residual activity [17] 100% | residual activity [18] 100% | residual activity [19] 100% | residual activity [20] 100% | residual activity [21] 100% | residual activity [22] 100% | residual activity [24] 100% | residual activity [25] 95% | residual activity [26] 87% | residual activity [27] 100% | residual activity [28] 88% | inhibition [29] 12.6% | residual activity [30] 100% | residual activity [31] 100% | residual activity [32] 100% | inhibition [33] 23.8% | residual activity [34] 100% | residual activity [35] 100% | residual activity [36] 93% | residual activity [37] 88% | residual activity [38] 100% | residual activity [39] 100% | residual activity [40] 100% | residual activity [41] 100% | residual activity [42] 100% | residual activity [43] 100% | residual activity [44] 100% | residual activity [45] 95%

From ChEMBL document CHEMBL4507282, “Data for DCP probe BI-1950” (2021)
